Target: EGFP-hSERT (UniProt P31645+P42212, F64L/H231L/S65T)
Assay type: cell-based, human

For `CCN(CC)c1ccc2c(-c3ccc(S(=O)(=O)NCCCCCC(=O)NCCC(=O)Nc4cccc(-c5ccc6c(c5)COC6(CCCN(C)C)c5ccc(F)cc5)c4)cc3S(=O)(=O)[O-])c3ccc(=[N+](CC)CC)cc-3oc2c1` (centres unmarked) [compound 8], the “labeling of EGFP-SERT in live cells in the presence of paroxetine” value (20 nM 8, 37°C, preincubation with 1 μM paroxetine 30 min) was “no fluorescence was observed at the cell surface in the red channel” and the “labeling of EGFP-SERT in live cells” value (20 nM 8, 60 min at 37°C, HEK293 EGFP-hSERT, without paroxetine) was “labels SERT with high specificity”.

From publication PMC3525792 (Bioorganic & medicinal chemistry letters, 2012)
